Laboratory results from patent US4743619A, “Method of treating hepatitis” (American Home Products Corporation, priority 1986, dated 1988).

Molecular target: T1, polymerase of hepatitis B virus (Hepatitis B virus genotype D subtype ayw, UniProt P03156)
T1 construct: the Dane particles were isolated from HBV-infected human blood; from tissue; host or cells: Dane particles (HBV virions) isolated from HBV-infected human blood
Experiment: in vitro endogenous DNA polymerase assay (Dane particles, radioactive nucleotide incorporation into viral DNA)
Type: biochemical
Conditions: for inhibition at 0.01 µg/mL: 0.01 μg/ml; for inhibition at 0.01 µg/mL / inhibition at 0.1 µg/mL: 37° C., 2 hours, Dane particle DNA polymerase; for inhibition at 0.1 µg/mL: 0.1 μg/ml; for inhibition of the polymerase of hepatitis B virus (in words): according to the endogenous DNA polymerase procedure
Method: Ten microliters of Dane particles were incubated at 37° C. for 2 hours in 100 μl containing 0.5% NP40, 0.07% BME, 66 mM Tris HCl (pH 7.6) 27 mM MgCl2, 0.40 mM NH4 Cl, 0.3 mM dATP, dGTP, and dTTP and 4 picomoles α^32 P-dCTP. The appropriate tubes also contained either 0.1 μg/ml or 0.01 μg/ml of the rifamycin derivatives (a), (b), (c), (d), or (e). The quantity of incorporation of radioactive nucleotides into viral DNA was determined by trichloroacetic acid precipitation as described by Landers et al., J. Virol. 23: 368-376, 1977. The control DNA polymerase reaction contained more than 20,000 cpm.

T1 sequence (P03156 whole entry): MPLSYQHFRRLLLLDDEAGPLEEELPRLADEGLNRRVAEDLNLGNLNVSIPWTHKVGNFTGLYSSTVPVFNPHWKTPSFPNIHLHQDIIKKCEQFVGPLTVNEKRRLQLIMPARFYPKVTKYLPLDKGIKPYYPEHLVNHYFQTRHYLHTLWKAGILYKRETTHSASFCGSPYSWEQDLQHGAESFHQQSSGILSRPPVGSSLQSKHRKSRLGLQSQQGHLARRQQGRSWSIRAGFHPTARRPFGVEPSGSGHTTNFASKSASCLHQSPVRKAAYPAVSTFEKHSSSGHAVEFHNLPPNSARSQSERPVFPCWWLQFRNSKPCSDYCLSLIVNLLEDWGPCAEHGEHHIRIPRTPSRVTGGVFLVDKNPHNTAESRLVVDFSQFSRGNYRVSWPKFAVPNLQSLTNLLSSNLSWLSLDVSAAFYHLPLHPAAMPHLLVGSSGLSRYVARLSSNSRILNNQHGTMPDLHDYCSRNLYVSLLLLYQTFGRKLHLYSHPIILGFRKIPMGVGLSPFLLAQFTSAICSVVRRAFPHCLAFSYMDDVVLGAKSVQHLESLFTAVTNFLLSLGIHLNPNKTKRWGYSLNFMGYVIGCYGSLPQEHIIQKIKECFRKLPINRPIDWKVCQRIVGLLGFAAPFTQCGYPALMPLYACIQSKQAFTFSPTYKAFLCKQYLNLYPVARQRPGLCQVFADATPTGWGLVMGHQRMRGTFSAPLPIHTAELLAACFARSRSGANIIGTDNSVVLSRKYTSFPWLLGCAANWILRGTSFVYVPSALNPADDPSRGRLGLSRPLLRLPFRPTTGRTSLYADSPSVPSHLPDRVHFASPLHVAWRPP

inhibition at 0.01 µg/mL [%] | inhibition at 0.1 µg/mL [%] | SMILES | inhibition of the polymerase of hepatitis B virus (in words)
17.2 | 54.1 | CO[C@H]1/C=C/O[C@@]2(C)Oc3c(C)c(O)c4c(c3C2=O)C(=N)C(N)=C(NC(=O)/C(C)=C\C=C\[C@H](C)[C@H](O)[C@@H](C)[C@@H](O)[C@@H](C)[C@H](OC(C)=O)[C@@H]1C)C4=O [(a), 3-amino-4-deoxo-4-imino-rifamycin S] | –
10 | 89 | CO[C@H]1/C=C/O[C@@]2(C)Oc3c(C)c(O)c4c(O)c(c(N)c(NS(=O)(=O)c5ccc(N)cc5)c4c3C2=O)NC(=O)/C(C)=C\C=C\[C@H](C)[C@H](O)[C@@H](C)[C@@H](O)[C@@H](C)[C@H](OC(C)=O)[C@@H]1C [(b), 3-amino-4-deoxo-4-[(4-aminophenyl)sulfonyl]amino-rifamycin SV] | inhibit the polymerase of hepatitis B virus
8.3 | 55.7 | CCCCS(=O)(=O)Oc1c(C=NN2CCCCC2)c2c(O)c3c(O)c(C)c4c(c13)C(=O)[C@@](C)(O/C=C/[C@H](OC)[C@@H](C)[C@@H](OC(C)=O)[C@H](C)[C@H](O)[C@H](C)[C@@H](O)[C@@H](C)/C=C/C=C(/C)C(=O)N2)O4 [(c), 4-O-(n-butylsulfonyl)-3-[(1-piperidinylimino)methyl]-rifamycin SV] | inhibit the polymerase of hepatitis B virus
10.2 | 92.5 | CCCCS(=O)(=O)Oc1c(C=NN2CCOCC2)c2c(O)c3c(O)c(C)c4c(c13)C(=O)[C@@](C)(O/C=C/[C@H](OC)[C@@H](C)[C@@H](OC(C)=O)[C@H](C)[C@H](O)[C@H](C)[C@@H](O)[C@@H](C)/C=C/C=C(/C)C(=O)N2)O4 [(d), 4-O-(n-butylsulfonyl)-3-[(4-morpholinylimino)methyl]-rifamycin SV] | inhibit the polymerase of hepatitis B virus
25.1 | 85.6 | CO[C@H]1/C=C/O[C@@]2(C)Oc3c(C)c(O)c4c(O)c(c(C=NN(C)C)c(OS(=O)(=O)CCCc5ccccc5)c4c3C2=O)NC(=O)/C(C)=C\C=C\[C@H](C)[C@H](O)[C@@H](C)[C@@H](O)[C@@H](C)[C@H](OC(C)=O)[C@@H]1C [(e), 3-[(dimethylhydrazono)methyl]-4-O-[(3-phenylpropyl)sulfonyl]-rifamycin SV] | inhibit the polymerase of hepatitis B virus
23.8 | 84.6 | COC1C=COC2(C)Oc3c(C)c(O)c4c(O)c(c5c(c4c3C2=O)N(S(C)(=O)=O)C(C)N5)NC(=O)C(C)=CC=CC(C)C(O)C(C)C(O)C(C)C(OC(C)=O)C1C (centres unmarked) [(f), 4-deoxo-N,3-ethylidenimino-4-(methylsulfonyl)amino rifamycin SV] | inhibit the polymerase of hepatitis B virus
